Data taken from article PMC10084252, “PAF‐induced inflammatory and immuno‐allergic ophthalmic diseases and their mitigation with PAF receptor antagonists: Cell and nuclear effects” (Biofactors (Oxford, England), 2022).
Where two headings read alike, the source gives them in different places. Where no end group is shown, it is not given here.

Tests used:
[1] = system: human conjunctival epithelial cells (HCECs); parameters: method as in PMID 9261768; settings: cited from earlier work; for EC50: read-out: EC50 for increase of [3H]‐IPs
[2] = system: asthma patients; parameters: method as in PMID 31816871; settings: cited from earlier work
[3] = system: human chronic diseases; parameters: method as in PMID 31816871; settings: ulcerative colitis, myocardiac infarction, organ failure associated with pancreatitis, cognitive decline after bypass surgery, psoriasis; cited from earlier work
[4] = system: patients suffering from rhinitis; parameters: method as in PMID 23459334, PMID 31470575; settings: oral, 4‐week period of dosing; cited from earlier work
[5] = molecular target: PAF receptor (Oryctolagus cuniculus, UniProt G1TEI7); test: [3H]‐PAF receptor binding to rabbit platelet membranes; settings: read-out: [3H]‐PAF receptor binding inhibition constant (Ki, nM; Mean ± SEM)
Description: (§1) FIGURE 5 Pharmacological profile of PAR receptor binding to platelet membranes. Figure 5A depicts the concentration‐dependent inhibition by unlabeled PAF receptor antagonists of different affinities for [^3H]‐PAF binding to rabbit platelet membranes in vitro. Figure 5B illustrates the correlation between the pharmacological profile of PAF receptor antagonists competing for [^3H]‐PAF binding to rabbit and human platelet membranes.

[6] = molecular target: T1, PAF receptor (Homo sapiens, UniProt P25105); test: [3H]‐PAF binding to human platelet membranes
T1 construct: from tissue; host or cells: human platelet membranes
Description: FIGURE 5 Pharmacological profile of PAR receptor binding to platelet membranes.

[7] = molecular target: T1, PAF receptor; test: [3H]‐WEB‐2086 binding to human platelet membranes; settings: read-out: [3H]‐WEB‐2086 binding inhibition constant (Ki, nM; Mean ± SEM)
[8] = system: laser‐induced choroidal neovascularization (CNV) in mice; parameters: method as in PMID 23826375; settings: cited from earlier work
[9] = system: rats; parameters: method as in PMID 9845270; settings: streptozotocin‐induced diabetes in rats; cited from earlier work
[10] = parameters: method as in PMID 31816871; settings: cited from earlier work
[11] = system: PAF receptors on rabbit and human platelets; test: PAF receptor binding on platelets; settings: Figure 5
Description: as §1

[12] = system: human conjunctival epithelial cells (HCECs); parameters: method as in PMID 19513187; settings: cited from earlier work
[13] = molecular target: PAF receptors in the bovine and rabbit cornea; parameters: method as in PMID 10067986; settings: cited from earlier work
[14] = system: human conjunctival epithelial cells (HCECs); parameters: method as in PMID 19513187; settings: cited from earlier work; remark: listed apart in the source
[15] = system: HCEPI/CEPI‐17‐CL4 cells; parameters: method as in PMID 9856766, PMID 9559896, PMID 9863665, PMID 10235542, PMID 20187806; settings: cited from earlier work
[16] = system: patients; parameters: method as in PMID 31816871; settings: cited from earlier work
[17] = system: photoreceptors; parameters: method as in PMID 15979612; settings: retinal ischemia / oxidative stress; cited from earlier work
[18] = system: naïve mice; parameters: method as in PMID 15326102, PMID 20961214, PMID 24754407, PMID 2891830, PMID 8529415; settings: cited from earlier work
[19] = system: rod outer segments; parameters: method as in PMID 1427144; settings: lithium‐ and light‐induced retinal degenerations animal models; cited from earlier work
[20] = system: animals; parameters: method as in PMID 7859817; settings: intravitreally injected PAF, pretreatment; cited from earlier work
[21] = system: patients; parameters: method as in PMID 31816871; settings: cited from earlier work; remark: listed apart in the source
[22] = parameters: method as in PMID 20454616, PMID 21804199, PMID 23355413, PMID 28341636; settings: cited from earlier work
[23] = system: retinal capillary endothelial cells; parameters: method as in PMID 12356842; settings: rat pups exposed to high levels of oxygen (model of ROP), prior treatment; cited from earlier work
[24] = system: HIS and PAF receptors; parameters: method as in PMID 1793070; settings: cited from earlier work
[25] = parameters: method as in PMID 31816871; settings: cited from earlier work; remark: listed apart in the source
[26] = parameters: method as in PMID 31816871; settings: cited from earlier work; remark: listed apart in the source
[27] = human platelet membranes, read-out: [3H]‐PAF receptor binding inhibition constant (Ki, nM; Mean ± SEM)

Chain of PAF receptor (Oryctolagus cuniculus, UniProt G1TEI7) (G1TEI7 1-342): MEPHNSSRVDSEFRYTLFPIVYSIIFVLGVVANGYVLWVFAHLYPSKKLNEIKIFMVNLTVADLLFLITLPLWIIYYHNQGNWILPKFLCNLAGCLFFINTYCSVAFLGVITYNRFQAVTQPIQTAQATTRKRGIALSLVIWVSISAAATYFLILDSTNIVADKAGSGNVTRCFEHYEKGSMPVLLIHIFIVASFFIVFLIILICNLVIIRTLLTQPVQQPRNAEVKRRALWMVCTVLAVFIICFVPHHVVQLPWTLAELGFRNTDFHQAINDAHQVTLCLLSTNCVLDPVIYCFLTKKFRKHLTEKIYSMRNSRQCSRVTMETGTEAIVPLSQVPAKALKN
T1 sequence (P25105 whole entry): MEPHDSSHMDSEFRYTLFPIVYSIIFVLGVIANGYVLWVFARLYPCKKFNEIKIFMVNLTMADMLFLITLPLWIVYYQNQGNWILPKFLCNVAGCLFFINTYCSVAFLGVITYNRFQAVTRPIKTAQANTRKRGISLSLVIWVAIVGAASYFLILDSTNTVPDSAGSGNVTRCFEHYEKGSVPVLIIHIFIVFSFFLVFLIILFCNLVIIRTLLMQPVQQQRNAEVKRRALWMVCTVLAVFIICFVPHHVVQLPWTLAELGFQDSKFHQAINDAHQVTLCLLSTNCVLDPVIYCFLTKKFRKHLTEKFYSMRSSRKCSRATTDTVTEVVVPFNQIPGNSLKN

bradykinin (RPPGFSPFR; Bradykinin; UniProt P01042 381-389, looked up) [BK, mast cell mediator]
EC50 [1]: 0.00083 µM

CC(C)c1cc(C(C)C)c(-c2csc(N(CCN(C)C)Cc3cccnc3)n2)c(C(C)C)c1 [SR27417A]
Efficacy in asthma patients [2]: modest efficacy
Efficacy in multiple human chronic diseases [3]: lack of efficacy

Clc1ccc2c(c1)CCc1cccnc1C2=C1CCNCC1 [des‐loratadine]
Nasal discharge, sneezing and nasal itching [4]: significantly reduced
Ocular itching [4]: significantly reduced

CCCCC[C@H](O)/C=C/[C@@H]1[C@@H](C/C=C\CCCC(=O)O)[C@@H](O)C[C@H]1O [PGF2α]
Stimulation of [3H]‐IPs (in words) [1]: inactive

C[C@@H]1S[C@H](c2cccnc2)N(C)C1=O [SM‐10661]
Ki [5]: 7490 ± 875 nM
Ki [6, 27]: 22800 nM
Ki [7]: 9850 ± 1350 nM

Cc1nnc2n1-c1sc(CCC(=O)N3CCOCC3)cc1C(c1ccccc1Cl)=NC2 [WEB‐2086]
Choroidal neovascularization and subretinal fibrosis induced by PAF [8]: inhibited
Fluoresceine leakage (retinal vascular leakage) after laser‐induced CNV ([8]; mice, prior treatment, intraperitoneal and intravitreal administration): blockade
Retinal blood vessel density [9]: helped preserve
Erythema induced by UV‐light [10]: reduction

COc1ccc(SCC(=S)N2CCc3c(sc4c3C(c3ccccc3Cl)=NCc3nnc(C)n3-4)C2)cc1OC [BN‐50739]
Ki [5]: 28.6 ± 8.4 nM
Ki [6, 27]: 53.4 ± 1.9 nM

platelet‐activating factor [PAF]
Ki [5]: 3.7 ± 0.4 nM
Ki [6, 27]: 3.1 ± 0.6 nM
Ki [7]: 26.5 ± 2 nM
Kd [11]: 0.0005 µM
EC50 [1]: 0.0045 µM
EC50 ([12]; read-out: EC50 for [Ca2+]i mobilization): 0.00081 µM
Kd [13]: 0.0008 to 0.0043 µM

substance P (RPKPQQFFGLM; ends and bridges not checked; UniProt P20366 58-68, looked up)
Stimulation of [3H]‐IPs (in words) [1]: inactive

COC(=O)C1=C(C)NC(C)=C(C(=O)OCCSc2ccccc2)C1C (stereo not drawn) [PCA‐4248]
Ki [6, 27]: 634 nM
Antagonism of PAF‐induced [Ca2+]i mobilization [12]: antagonized
Effect on PAF‐induced synthesis and secretion of IL‐6, IL‐8 and GM‐CSF [14]: curtailed
Effect on PAF‐induced IPs production [15]: blocked

Cc1nnc2n1-c1sc(CCc3ccc(CC(C)C)cc3)cc1C(c1ccccc1Cl)=NC2C (stereo not drawn) [Y‐24180]
Bronchial hyperresponsiveness [16]: improvement

CC1=C(C(=O)OCCOc2ccc(Cl)c(Cl)c2)C(C)C(C(=O)OC(CN2CCOCC2)CN2CCOCC2)=C(C)N1 (stereo not drawn) [LAU0901]
Protection of photoreceptors and their terminals [17]: efficaciously protected

endothelin (CSCSSLMDKECVYFCHLDIIW; ends and bridges not checked; cysteine pairing not given here; UniProt P05305 53-73, looked up)
Stimulation of [3H]‐IPs (in words) [1]: inactive

CC1C(=O)OC2C(O)C34C5CC(C(C)(C)C)C36C(OC(=O)C6O)OC4(C(=O)O5)C12O (stereo not drawn) [BN‐52021(Ginkolide B), Ginkgolide B]
PAF‐induced ocular surface neovascularization [18]: inhibited
Damage to rod outer segments [19]: effectively suppressed
PAF‐induced disruption of choroidal endothelial cell layer and polymorphonuclear leukocyte infiltration [20]: mostly abolished
PAF levels in patients [21]: reduction

C#Cc1cccc2c1c(C(=O)c1ccc(Cn3c(C)nc4cnccc43)c(F)c1)cn2C(=O)N(C)C [ABT‐491]
Pain induced by ATP‐triggered PAF release [22]: blocked

CCOC[C@H](CC(C)C)N(C)S(=O)(=O)c1ccc(Cn2c(C)nc3cnccc32)cc1 [Nupafant]
Ki [5]: 1.7 ± 0.6 nM

CCCCCCCCCCCCCCCCCCNC(=O)OCC(COP(=O)([O-])OCC[n+]1ccsc1)OC (stereo not drawn) [CV‐3988]
Ki [5]: 2900 ± 240 nM
Ki [6, 27]: 3090 ± 889 nM
Ki [7]: 3780 ± 759 nM
Antagonism of PAF‐induced [Ca2+]i mobilization [12]: antagonized
Effect on PAF‐induced synthesis and secretion of IL‐6, IL‐8 and GM‐CSF [14]: curtailed
PAF‐induced ocular surface neovascularization [18]: inhibited
Loss of retinal capillary endothelial cells [23]: reduced

Cc1nnc2n1-c1sc3c(c1C(c1ccccc1Cl)=N[C@H]2C)CCN(C(=O)C1CC1)C3 [E‐6123]
Ki [5]: 9.3 ± 0.3 nM

COc1ccc(NC(=S)N2CCc3c(sc4c3C(c3ccccc3Cl)=NCc3nnc(C)n3-4)C2)cc1 [BN‐50730 (Rocipafant) LAU‐8080, Rocipafant]
Ki [5]: 44.8 ± 7.2 nM

Hexanolamine
Ki [5]: 164 ± 15.4 nM

CCCCCCCCCCCCCCCCCCNC(=O)OC[C@@H](COCCCC[n+]1ccsc1)OC(=O)OC [RO‐19‐3704]
Ki [5]: 201 ± 22.5 nM

CN(C)C(=O)n1cc(C(=O)c2ccn3c2CS[C@@H]3c2cccnc2)c2ccc(-c3ccc(F)cc3)cc21 [A‐85783]
Ki [5]: 6.9 ± 1 nM

CC(C)(CCN1CCN(C(=O)C2CSC(c3cccnc3)N2)CC1)c1ccccc1 (stereo not drawn) [YM‐264]
Ki [5]: 5.1 ± 0.6 nM
Ki [6, 27]: 7.3 ± 1.8 nM

Cc1cncc(CN2CCC(=C3c4ccc(Cl)cc4CCc4cccnc43)CC2)c1 [SCH‐37370 (Rupatadine), Rupatadine]
Affinities and potencies at both HIS and PAF receptors (in words) [24]: micromolar
Nasal discharge, sneezing and nasal itching [4]: significantly reduced
Ocular itching [4]: significantly reduced
Effects in chronic idiopathic urticaria and allergic rhino‐conjunctivitis [25]: beneficial effects

CCCCC/C=C\C\C=C/C=C/C=C/[C@@H](SC[C@H](NC(=O)CC[C@H](N)C(=O)O)C(=O)NCC(=O)O)[C@@H](O)CCCC(=O)O [LTC4]
EC50 [1]: 0.3 µM

NCCc1c[nH]cn1 [HIS, histamine]
EC50 [1]: 3.1 µM

CCOC(=O)[C@H](CC(C)C)N(C)S(=O)(=O)c1ccc(Cn2c(C)nc3cnccc32)cc1 [Lexipafant]
Efficacy in multiple human chronic diseases [3]: lack of efficacy

C#Cc1cccc2c1c(C(=O)c1ccc(Cn3c(C)nc4cnccc43)c(F)c1)cn2C(=O)N(C)C [A‐137491]
Ki [6]: 3.9 ± 0.5 nM

CCOC(=O)C1=C(c2ccc(-n3c(C)nc4cnccc43)cc2)NC(C)=C(C(=O)Nc2ccccn2)[C@H]1c1ccccc1Cl [Modipafant]
Efficacy in multiple human chronic diseases [3]: lack of efficacy

CCCCCCCCOc1ccccc1C(=O)Nc1ccc(C(=O)OCC[N+](C)(CC)CC)cc1 [Octylonium]
Ki [6, 27]: 4335 ± 17.8 nM

CCC[n+]1cc(Br)cc(C(=O)N(CCC(=O)NCCOC(=O)N2CCc3ccccc3C2)c2ccccc2)c1.O=[N+]([O-])[O-] [TCV‐309]
Ki [5]: 5.5 ± 0.2 nM
Ki [6, 27]: 9.4 ± 3.1 nM
Organ dysfunction and morbidity linked to septic shock [26]: reduction
